Source: publication PMC4464269, “Potential of acylated peptides to target the influenza A virus” (Beilstein Journal of Organic Chemistry, 2015)
Values joined by “and” are separate entries in the source; they are usually repeats but may differ in a detail not shown here. Identical values can stand only once. Ends that are not written are not given here.

How the values were obtained:
[1] = test system: human erythrocytes; assay: Hemolysis assay; format: cell-based; settings: 2% human erythrocytes, 1 h at 37 °C, absorption of the supernatant at 540 nm; titration, three experiments; for C18-s2s above concentrations of 20 µM
Procedure: To assess how strong membrane incorporation of these peptides can perturb membranes we measured their cell lytic activity in a titration experiment with human erythrocytes. […] For EB the same has been reported by Jones et al..
Figure 7 Hemolytic activity of stearylated peptides and EB. 2% human erythrocytes were incubated for one hour with peptides at 37 °C. After centrifugation, the hemolytic activity was assessed by absorption measurement of the supernatant at 540 nm. Error bars indicate the SEM of three titration experiments.
Peptide inhibitors were serially diluted in PBS, mixed with a 2% human erythrocyte solution, and incubated for 1 h at 37 °C. Afterwards, the mix was centrifuged for 10 min at 1500 x g.
Supernatants were measured for absorption at 540 nm representative for hemoglobin release. Buffer absorbance was subtracted from all data points.
Protection from infection assay
Viral infection inhibition assays were performed using an MTS reagent (Promega). 15,000 MDCK II cells were seeded the day before infection. […] Two hours before the readout, 20 µL MTS solution (Promega) was added to each well and put back to 37 °C for the remaining time. Finally, absorbance at 490 nm was measured by a plate reader (Fluostar optima, BMG) and data were normalized to maximum viral cytotoxicity. […]

[2] = format: physicochemical; settings: for hydrodynamic diameter (DLS): Zetasizer Nano ZS, back scattering 173°
[3] = test system: Aichi H3N2 virus (X31) mediated hemagglutination of human erythrocytes; format: cell-based, influenza A virus A/Aichi/2/1968 H3N2 (X31)
[4] = test system: human erythrocytes; format: cell-based
[5] = format: physicochemical; settings: 2 mM in PBS, negative staining with 1% phosphotungstic acid pH 7.4; cryo-TEM gave the same results
[6] = test system: infection of MDCK II cells by Rostock H7N1; format: cell-based, influenza A virus A/FPV/Rostock/34 H7N1
[7] = test system: Rostock H7N1 virus mediated hemagglutination of turkey erythrocytes; format: cell-based, influenza A virus A/FPV/Rostock/34 H7N1
[8] = test system: infection of MDCK II cells by Aichi H3N2; format: cell-based, influenza A virus A/Aichi/2/1968 H3N2 (X31)
[9] = test system: Aichi H3N2; settings: at higher viral titer than used in this paper; ref [14]; read-out: IC50 against Aichi H3N2 in the HAI; cited from earlier work
Procedure: The potential to inhibit binding of influenza viruses to cells can be investigated by the well-established hemagglutination inhibition assay (HAI). All peptides, but the control peptide C18-rs2s were able to inhibit Aichi H3N2 virus mediated hemagglutination already at low micromolar concentrations (Table 2). For EB an IC50 of 20 µM against Aichi H3N2 in the HAI has been determined, however at higher viral titer than we used.

[10] = test system: Hongkong H5N1; settings: read-out: IC50 against Hongkong H5N1; cited from earlier work
[11] = 20 µM in PBS (10 mM, pH 7.4), volume distribution profile

Substance | hemolytic activity [1] | volume size distribution (DLS), in words ([2]; 20 µM in PBS (10 mM, pH 7.4)) | KiHAI (Aichi H3N2) [3] | KiA [4] | PDI (DLS) ([2]; 20 µM in PBS (10 mM, pH 7.4)) | hydrodynamic diameter (DLS) [2, 11] | morphology of assemblies (TEM) [5] | share of bigger supramolecular structures (DLS) [2, 11] | size of supramolecular aggregates (DLS) ([2]; concentration of 100 µM) | decrease of the KiHAI value compared with unmodified PeB^GF, Aichi H3N2 [3] | enhancement of inhibition in infection inhibition compared with unmodified PeB^GF, Rostock H7N1 [6] | IC50 ([6]; read-out: IC50, infection inhibition of MDCK cells by Rostock H7N1) | KiHAI (Rostock H7N1) [7] | decrease of the KiHAI value compared with unmodified PeB^GF, H7N1 [7] | enhancement of inhibitory potential in infection inhibition compared with unmodified PeB^GF, Aichi H3N2 [8] | IC50 ([8]; read-out: IC50, infection inhibition of MDCK cells by Aichi H3N2) | IC50 [9] | IC50 [10]
C17H35CO-ARLPRTMV-CONH2 [C18-s2s, stearylated sialic acid mimetic peptide (Matsubara et al. 2010)] | extremely hemolytic | multimodal | 0.8 ± 0.5 µM | 7.0 ± 0.8 µM | – | – | – | – | – | – | – | – | – | – | – | – | – | –
C17H35CO-VMTRPLRA-CONH2 [C18-rs2s, reference compound] | – | – | no effect | 4.1 ± 2.1 µM | 0.328 | 818.8 nm | – | – | – | – | – | – | – | – | – | – | – | –
C17H35CO-XXXXXXXXXXXXXXX-CONH2 [C18-PeB^GF, stearylated HA antibody derived antiviral peptide] | – | – | 1.2 ± 0.0 µM | 100.0 ± 0.0 µM | 0.454 | 16.7 nm | fibrillar supramolecular arrangement being up to several hundred nanometers long | 10–15% | > 1 µm | 20 fold | did not increase | 84 µM | 2.8 µM and 2.8 ± 0.9 µM | 10 fold | approx. 5 fold | 5.9 µM | – | –
RRKKAAVALLPAVLLALLAP-NH2 [EB] | – | – | 1.6 ± 0.3 µM | 8.6 ± 7.0 µM | – | – | – | – | – | – | – | – | – | – | – | – | 20 µM | 4.5 µM
